The target in assay [1] is T1, human BRD4 bromodomain II (Homo sapiens, UniProt O60885).
T1 construct: human BRD4 bromodomain II [based on Genbank NM_058243, residues 349-460]; host or cells: E. coli
The assay is described as follows: Bromodomain binding assay (AlphaScreen), BRD4 BDII. The procedure, abridged:
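E. coli-expressed N-terminal His6-tagged human BRD4 BDII (residues 349-460) or BDI (residues 44-170) was preincubated 30 min at room temperature with compound (10-point, 3-fold) in pH 7.5 HEPES buffer, 1% DMSO. Displacement of biotinylated tetra-acetylated H4 1-21 peptide was read by AlphaScreen, and IC50 came from curve fitting.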
In general terms: Bead proximity is the source of the signal in Alpha formats.

Assay [2] has as its system human SKM-1 acute myeloid leukemia cells. Kind of assay: SKM-1 antiproliferation cell-based assay (ATPlite). The procedure, abridged:
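Log-phase cells in RPMI 1640/15% FBS were seeded at 34722 cells/mL and exposed for 4 days to nine-concentration DMSO serial dilutions in triplicate. Viability was read as ATP luminescence (ATPlite 1step), and IC50 values came from variable-slope non-linear regression.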

Setting [3] is: AlphaScreen assay, Table C2, read-out: BRD4 BDII IC50.
[4] abbreviates: Homo sapiens, SKM-1, 96 h, SKM-1 antiproliferation assay, 4 days, Table C2.
The mark [5] stands for this setting: BRD4 BDII AlphaScreen assay, read-out: BRD4 BD2 IC50.

Structures are written as SMILES. Like-named read-outs stand apart in the source and are kept apart here.

`CC(C)N1CC2CN(c3cc(-c4cc(F)cc(-c5ccc(-n6ccn(C)c6=O)c(Cl)c5)c4O)ccn3)CC21` (stereo not drawn) [Example 747, 1-(3-chloro-5′-fluoro-2′-hydroxy-3′-(2-(6-isopropyl-3,6-diazabicyclo[3.2.0]heptan-3-yl)pyridin-4-yl)-[1,1′-biphenyl]-4-yl)-3-methyl-1H-imidazol-2(3H)-one]: the IC50 in assay [1] (setting [3]) was in the range of 0.01 to 1 nM. Further, the GI50 in assay [2] (setting [4]) is 0.3 to 30 nM.
In the case of `CC(=O)Nc1ccc(-c2cccc(-c3ccnc(N4CC[C@@H](O)C4)c3)c2O)cc1F` [Example 251, (R)-N-(3-fluoro-2′-hydroxy-3′-(2-(3-hydroxypyrrolidin-1-yl)pyridin-4-yl)-[1,1′-biphenyl]-4-yl)acetamide], the IC50 in assay [1] (setting [3]) was in the range of 10 to 100 nM. The compound further yielded a concentration for 50% growth inhibition (GI50) in assay [2] (setting [4]) of 30 to 300 nM.
The matching figures for `Cn1ccn(-c2ccc(-c3cc(F)cc(-c4ccnc(N5CCN(Cc6ccccc6)CC5)c4)c3O)cc2Cl)c1=O` [Example 629, 1-(3′-(2-(4-benzylpiperazin-1-yl)pyridin-4-yl)-3-chloro-5′-fluoro-2′-hydroxy-[1,1′-biphenyl]-4-yl)-3-methyl-1H-imidazol-2(3H)-one]: 0.01 to 1 nM and 30 to 300 nM.
The matching figures for `Cn1ccn(-c2ccc(-c3cc(F)cc(-c4cnc(C(F)(F)F)c(N5CCN(C(C)(C)C)CC5)c4)c3O)cc2Cl)c1=O` [Example 805, 1-(3′-(5-(4-(tert-butyl)piperazin-1-yl)-6-(trifluoromethyl)pyridin-3-yl)-3-chloro-5′-fluoro-2′-hydroxy-[1,1′-biphenyl]-4-yl)-3-methyl-1H-imidazol-2(3H)-one]: 1 to 10 nM and 30 to 300 nM.
The matching figures for `CC(=O)NC1(C)CCN(c2cc(-c3cc(F)cc(-c4ccc(-n5ccn(C)c5=O)c(Cl)c4)c3O)ccn2)C1` (stereo not drawn) [Example 782, N-(1-(4-(3′-chloro-5-fluoro-2-hydroxy-4′-(3-methyl-2-oxo-2,3-dihydro-1H-imidazol-1-yl)-[1,1′-biphenyl]-3-yl)pyridin-2-yl)-3-methylpyrrolidin-3-yl)acetamide]: 0.01 to 1 nM and 30 to 300 nM.
Turning to `CN1CCN(c2ccc(-c3cc(F)cc(-c4cnc(Cl)c(N5CCNCC5)c4)c3O)cc2Cl)C1=O` [Example 407, 1-(3-chloro-3′-(6-chloro-5-(piperazin-1-yl)pyridin-3-yl)-5′-fluoro-2′-hydroxy-[1,1′-biphenyl]-4-yl)-3-methylimidazolidin-2-one], the IC50 in assay [1] (setting [3]) is 1 to 10 nM. The same compound gave a GI50 in assay [2] (setting [4]) of 0.3 to 30 nM.
On to `Cn1cc(-c2cc(F)cc(-c3ccc(-n4ccn(C)c4=O)c(Cl)c3)c2O)cc(N2CC[C@@](C)(N)C2)c1=O` [Example 753, (R)-3-(3-amino-3-methylpyrrolidin-1-yl)-5-(3′-chloro-5-fluoro-2-hydroxy-4′-(3-methyl-2-oxo-2,3-dihydro-1H-imidazol-1-yl)-[1,1′-biphenyl]-3-yl)-1-methylpyridin-2(1H)-one], for which the IC50 in assay [1] (setting [3]) was 0.01 to 1 nM. Further, the GI50 in assay [2] (setting [4]) was in the range of 0.3 to 30 nM.
The matching figures for `Cn1ccn(-c2ccc(-c3cc(F)cc(-c4cncc(N5CCNCC5)c4)c3O)cc2Cl)c1=O` [Example 472, 1-(3-chloro-5′-fluoro-2′-hydroxy-3′-(5-(piperazin-1-yl)pyridin-3-yl)-[1,1′-biphenyl]-4-yl)-^3-methyl-1H-imidazol-2(3H)-one]: 1 to 10 nM and 0.3 to 30 nM.
For `Cc1cc(-c2ccc(-n3ccn(C)c3=O)c(Cl)c2)c(O)c(-c2cnc(C)c(N3CCC4(CCN4C(C)C)C3)c2)n1` (stereo not drawn) [Example 974, 1-(2-chloro-4-(3-hydroxy-5′-(1-isopropyl-1,6-diazaspiro[3.4]octan-6-yl)-6,6′-dimethyl-[2,3′-bipyridin]-4-yl)phenyl)-3-methyl-1H-imidazol-2(3H)-one], the IC50 in assay [1] (setting [5]) lay in the range of 0.01 to 1 nM. In addition, in assay [2] (Homo sapiens, SKM-1, SKM-1 antiproliferation assay), the 50% growth inhibitory concentration (GI50) is 0.3 to 30 nM.
Turning to `CN[C@H]1CCCN(c2cncc(-c3cc(F)cc(-c4ccc(-n5ccn(C)c5=O)c(Cl)c4)c3O)c2)C1` [Example 478, (S)-1-(3-chloro-5′-fluoro-2′-hydroxy-3′-(5-(3-(methylamino)piperidin-1-yl)pyridin-3-yl)-[1,1′-biphenyl]-4-yl)-3-methyl-1H-imidazol-2(3H)-one], the 50% inhibitory concentration (IC50) in assay [1] (setting [3]) was 0.01 to 1 nM. Also, the GI50 in assay [2] (setting [4]) lay in the range of 0.3 to 30 nM.
The matching figures for `CCN1CCN(c2cc(-c3cc(F)cc(-c4ccc(-n5ccn(C)c5=O)c(Cl)c4)c3O)cc3[nH]ncc23)CC1` [Example 582]: 0.01 to 1 nM and 0.3 to 30 nM.
The matching figures for `C[C@@H]1CN(c2cc(-c3cc(F)cc(-c4ccc(N5CCN(C)C5=O)c(Cl)c4)c3O)cn(C)c2=O)CCN1` [Example 377, (R)-5-(3′-chloro-5-fluoro-2-hydroxy-4′-(3-methyl-2-oxoimidazolidin-1-yl)-[1,1′-biphenyl]-3-yl)-1-methyl-3-(3-methylpiperazin-1-yl)pyridin-2(1H)-one]: 1 to 10 nM and 30 to 300 nM.
Turning to `C[C@@H]1CN(c2cncc(-c3cccc(-c4ccc(N5CCCC5=O)c(Cl)c4)c3O)c2)CCN1` [Example 265, (R)-1-(3-chloro-2′-hydroxy-3′-(5-(3-methylpiperazin-1-yl)pyridin-3-yl)-[1,1'-biphenyl]-4-yl)pyrrolidin-2-one], in assay [1] (setting [3]), the half-inhibitory concentration (IC50) fell in the range of 1 to 10 nM. Moreover, in assay [2] (setting [4]), the GI50 was 30 to 300 nM.
As for `O=c1n(-c2ccc(-c3cc(F)cc(-c4ccnc(N5CCNCC5)c4)c3O)cc2Cl)ccn1C(F)F` [Example 468, 1-(3-chloro-5′-fluoro-2′-hydroxy-3′-(2-(piperazin-1-yl)pyridin-4-yl)-[1,1′-biphenyl]-4-yl)-3-(difluoromethyl)-1H-imidazol-2(3H)-one], in assay [1] (setting [3]), the IC50 is 1 to 10 nM. The GI50 in assay [2] (setting [4]) lay within 300 to 3000 nM.
The matching figures for `Cn1ccn(-c2ccc(-c3cc(F)cc(-c4ccnc(N5CCN6C(=O)OC[C@@H]6C5)c4)c3O)cc2Cl)c1=O` [Example 560, (S)-7-(4-(3′-chloro-5-fluoro-2-hydroxy-4′-(3-methyl-2-oxo-2,3-dihydro-1H-imidazol-1-yl)-[1,1′-biphenyl]-3-yl)pyridin-2-yl)tetrahydro-1H-oxazolo[3,4-a]pyrazin-3(5H)-one]: 1 to 10 nM and 30 to 300 nM.
The matching figures for `CN1CCN(c2ccc(-c3cccc(-c4ccnc(N5CC6(CNC6)C5)c4)c3O)cc2Cl)C1=O` [Example 323, 1-(3′-(2-(2,6-diazaspiro[3.3]heptan-2-yl)pyridin-4-yl)-3-chloro-2′-hydroxy-[1,1′-biphenyl]-4-yl)-3-methylimidazolidin-2-one]: 1 to 10 nM and 30 to 300 nM.
The matching figures for `Cn1ccn(-c2ccc(-c3cc(F)cc(-c4cc(N5CCNC(C)(C)C5)c5cn[nH]c5c4)c3O)cc2Cl)c1=O` [Example 589, 1-(3-chloro-3′-(4-(3,3-dimethylpiperazin-1-yl)-1H-indazol-6-yl)-5′-fluoro-2′-hydroxy-[1,1′-biphenyl]-4-yl)-3-methyl-1H-imidazol-2(3H)-one]: 1 to 10 nM and 0.3 to 30 nM.
In the case of `CC(C)c1cc(-c2cc(F)cc(-c3cccc(N4CCN(C(C)(C)C)CC4)c3)c2O)cc(Cl)c1-n1ccn(C)c1=O` [Example 934, (R)-1-(3″-(4-(tert-butyl)piperazin-1-yl)-3-chloro-5′-fluoro-2′-hydroxy-5-isopropyl-[1,1′:3′,1″-terphenyl]-4-yl)-3-methyl-1,3-dihydro-2H-imidazol-2-one], the half-inhibitory concentration (IC50) in assay [1] (setting [5]) was greater than 100 nM. Moreover, the 50% growth inhibitory concentration (GI50) in assay [2] (SKM-1 antiproliferation assay) is 300 to 3000 nM.

The term IC50 denotes the concentration that inhibits the measured activity by half. A word on the GI50: it is the concentration that inhibits growth by half. A high value points to less potent growth inhibition.

These data come from US20250179059A1 (The Regents of the University of California, priority 2021, published 2025).
